Consider one compound from BindingDB's records for PubMed 36346645 (University of Copenhagen, 2022).

A word on the pKi: it is the Ki on a negative log10 scale, so that one unit is a factor of ten.

pKi: −log10 of the molar value.

In this assay the target is Calcium/calmodulin-dependent protein kinase type II subunit alpha (Rattus norvegicus, UniProt P11275). As to the kind of experiment: Displacement of [3H]NCS-382 from CaMK2alpha in rat brain cortical membrane homogenates measured after 1 hr by TopCount scintillation counting method. A general note: Loss of bound radioactivity is the signal in a displacement assay; it reports binding, not function.
Calcium/calmodulin-dependent protein kinase type II subunit alpha, sequence (P11275 whole entry): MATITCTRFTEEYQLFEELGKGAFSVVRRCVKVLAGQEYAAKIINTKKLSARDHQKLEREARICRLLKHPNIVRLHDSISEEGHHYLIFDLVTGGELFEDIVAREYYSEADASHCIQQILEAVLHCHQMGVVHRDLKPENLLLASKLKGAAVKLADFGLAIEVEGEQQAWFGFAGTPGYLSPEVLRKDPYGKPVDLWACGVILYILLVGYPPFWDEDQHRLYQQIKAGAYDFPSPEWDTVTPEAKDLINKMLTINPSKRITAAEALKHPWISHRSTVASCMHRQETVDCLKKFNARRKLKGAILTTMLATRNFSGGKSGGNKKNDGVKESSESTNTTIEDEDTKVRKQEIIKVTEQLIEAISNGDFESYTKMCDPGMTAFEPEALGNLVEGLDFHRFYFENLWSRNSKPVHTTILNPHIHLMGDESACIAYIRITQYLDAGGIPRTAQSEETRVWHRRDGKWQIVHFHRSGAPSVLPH

For `O=C(O)/C=C1\CCCc2cc(I)ccc2C1O` (stereo unspecified), the pKi is 7.30.
